We go through 14 molecules from US11912693B2, “Compounds for modulating S1P1 activity and methods of using the same” (TREVENA, INC., priority 2017, dated 2024).

The target of experiment [1] is T1, human sphingosine-1-phosphate receptor 1 (S1P1) (Homo sapiens (Human), UniProt P21453). Briefly: Inhibition of cAMP production (HTRF cAMP HiRange), S1P1 CHO-K1 cells. As to conditions: for hS1P1 cAMP pEC50: inhibition of cAMP production, S1P1 CHO-K1 cells; for Emax: CHO-K1, efficacy (SPAN) normalized to fingolimod, read-out: hS1P1 cAMP SPAN. The format is cell-based. Put shortly:
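CHO-K1 cells stably co-expressing human S1P1 (C-terminal Prolink tag) and EA-β-arrestin2 were grown in AssayComplete Media 6 at 37° C. and 5% CO2, plated, and incubated overnight. Agonist-driven inhibition of intracellular cAMP was read by TR-FRET with the HTRF cAMP HiRange kit on a PheraStar reader. Potency is pEC50, and efficacy (SPAN) is normalized to fingolimod.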
(cAMP levels reflect the balance of adenylyl cyclase and phosphodiesterase activity.)
Target sequence in this assay (P21453 whole entry, looked up): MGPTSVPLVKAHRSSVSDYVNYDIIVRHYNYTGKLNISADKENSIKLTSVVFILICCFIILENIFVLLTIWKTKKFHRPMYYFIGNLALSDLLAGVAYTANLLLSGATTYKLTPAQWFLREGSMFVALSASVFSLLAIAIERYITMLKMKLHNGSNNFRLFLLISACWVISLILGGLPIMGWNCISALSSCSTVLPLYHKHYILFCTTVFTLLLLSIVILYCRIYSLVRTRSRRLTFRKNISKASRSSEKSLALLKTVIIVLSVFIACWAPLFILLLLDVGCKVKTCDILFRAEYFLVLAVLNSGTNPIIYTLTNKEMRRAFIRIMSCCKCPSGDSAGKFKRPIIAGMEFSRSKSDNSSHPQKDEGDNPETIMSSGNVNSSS

Experiment [2] deals with T1, human sphingosine-1-phosphate receptor 1 (S1P1). Briefly: β-Arrestin2 recruitment assay (PathHunter), S1P1 CHO-K1 cells. The class given is cell-based. As to conditions: for hS1P1 B-arrestin2 pEC50: β-arrestin2 recruitment, S1P1 CHO-K1 cells; for Emax: CHO-K1, efficacy (SPAN) normalized to fingolimod, read-out: hS1P1 B-arrestin2 SPAN. Put shortly: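 Enzyme-fragment complementation read-out: agonist-driven β-arrestin2 binding to ProLink-tagged human S1P1 in stable CHO-K1 cells restores β-galactosidase, measured 1 h at room temperature after a 60 min 37° C. compound incubation. Potency as pEC50, efficacy relative to fingolimod (SPAN).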
Background: Activated receptors often draw arrestin, which recruitment assays turn into a signal.
Target sequence in this assay (P21453 whole entry, looked up): as above
Target sequence in this assay (P32121 whole entry partner, looked up): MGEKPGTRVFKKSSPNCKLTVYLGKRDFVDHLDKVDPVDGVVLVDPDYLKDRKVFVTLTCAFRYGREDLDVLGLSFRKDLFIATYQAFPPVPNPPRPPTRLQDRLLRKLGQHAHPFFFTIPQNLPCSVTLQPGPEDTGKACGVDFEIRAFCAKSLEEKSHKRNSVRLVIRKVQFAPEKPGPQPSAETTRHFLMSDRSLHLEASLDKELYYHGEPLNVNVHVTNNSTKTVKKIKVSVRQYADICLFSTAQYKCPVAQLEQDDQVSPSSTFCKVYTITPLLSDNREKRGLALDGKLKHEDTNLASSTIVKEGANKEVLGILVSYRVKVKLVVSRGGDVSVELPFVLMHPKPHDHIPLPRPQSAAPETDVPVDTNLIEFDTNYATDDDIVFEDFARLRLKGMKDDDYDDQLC

The target in experiment [3] is human sphingosine-1-phosphate receptor 2 (S1P2) (Homo sapiens (Human), UniProt O95136). Briefly: Inositol monophosphate production (IP-one TB kit), S1P2 CHO-K1 cells. The format is cell-based. As to conditions: inositol monophosphate accumulation, hS1P2. The method, then:
(§1) Stable clonal Chinese hamster ovary K1 (CHO-K1) cells co-expressing EA-β-arrestin2 and the human sphingosine-1-phosphate receptor 2 (NM_004230.3, S1P2), human sphingosine-1-phosphate receptor 3 (NM_005226, S1P3) and sphingosine-1-phosphate receptor 5 (NM_001166215.1, S1P5) with a C-terminal Prolink™ tag were purchased from DiscoverX corporation (S1P2: Cat #93-0256C2, S1P3: Cat #93-0217C2, S1P5: Cat #93-0583C2).
(§2) Cell lines were cultured in AssayComplete™ Media 6 (DiscoverX Corporation, Cat #: 920018GF2) at 37° C. and 5% CO2 in a humidified CO2 and temperature-controlled incubator. To begin assay plating, cells were washed with dulbecco's phosphate buffered saline (CellGro, Cat #: 21-031-CV) and lifted from the culturing flask by incubation (37° C., 5 min) with CellStripper (Cellgro, Cat #: 25-056-CI). […] Plated cells were incubated overnight at 37° C. and 5% CO2 in a humidified CO2 and temperature-controlled incubator.
S1P2 Agonist-promoted G-protein responses were determined by measuring changes in intracellular inositol monophosphate using the IP-one TB kit (CisBio, Cat #: 62IPAPEJ) based on time-resolved fluorescence resonance energy transfer (TR-FRET) technology. AssayComplete™ Cell Plating 2 Reagent was removed and replaced with 1× IP-one stimulation buffer (as per manufacturer's instructions) along with test or control compounds at the desired concentrations. Following a 60-minute incubation at 37° C. and 5% CO2 in a humidified CO2 and temperature-controlled incubator, the components of the IP-one TB kit were added as per the manufacturer's instructions. After an hour incubation at room temperature, plates were analyzed by a BMG PheraStar microplate reader.
(§3) The tables below include the efficacy of the compound as compared to a positive control, referred to as “SPAN”. These values are normalized to fingolimod, a known agonist of the sphingosine-1-phosphate 3 and 5 receptor or CYM5520, a known agonist of the sphingosine-1-phosphate 2 receptor. The tables also include potency values (pEC50) for modulating discrete receptor-mediated activities (inhibition of cAMP production or inositol monophosphate accumulation).

Experiment [4] has as its target human sphingosine-1-phosphate receptor 3 (S1P3) (Homo sapiens (Human), UniProt Q99500). Briefly: Inhibition of cAMP production (HTRF), S1P3 CHO-K1 cells. The class given is cell-based. As to conditions: inhibition of cAMP production, hS1P3. Here is the method:
as §1, §2
S1P3 and S1P5 Agonist-promoted G-protein responses were determined by measuring changes in intracellular cAMP using the HTRF® cAMP HiRange kit (CisBio, Cat #: 62AM6PEJ) based on time-resolved fluorescence resonance energy transfer (TR-FRET) technology. […] Following a 30-minute room temperature incubation the components of the cAMP HiRange kit were added as per the manufacturer's instructions. After an hour incubation at room temperature, plates were analyzed by a BMG PheraStar microplate reader.
as §3

Experiment [5] relates to paclitaxel induced peripheral neuropathy. Briefly: Reversal of allodynia induced by paclitaxel in mice (s.c. or p.o., von Frey frequency method). The class given is in vivo, c57bl/6 mice. As to conditions: Mus musculus; for inhibition in vivo at 3 mg/kg: po, 1 h, 3 mg/kg p.o., tested 60 min after dosing, read-out: Screen @ 3 mg/kg po (% MPE). The method, then: Compounds were tested for efficacy in mouse models of chemotherapy induced peripheral neuropathy. […] For these studies […]/6 mice are habituated to the test environment and baseline measurements of pain sensitivity are assessed. To determine mechanical responses, the threshold for responses to punctate mechanical stimuli (mechanical hyperalgesia) was tested according to the frequency method. In brief, the plantar surface of the animal hindpaw was stimulated with a single von Frey monofilament (0.4 g) for approximately 1-2 seconds. If there was a withdrawal response, it was recorded as a positive response. A response was defined as a lifting or shaking of the paw upon stimulation. This was repeated ten times for each mouse. The final measurement for each mouse is the % non-response to stimulation for the ten trials. The % non-response to stimulation is converted to a % MPE. For paclitaxel induced peripheral neuropathy, a series of injections of PAC (6 mg/kg, i.p.) on days 1, 3, 5 and 7 is used to induce peripheral neuropathy. After approximately 14 days from the initiation of PAC injections, animals are re-assessed for mechanical sensitivity. […] On test day animals are dosed with compounds either subcutaneously or orally and tested for mechanical response by the frequency method either 30 min (s.c.) or 60 min (p.o.) after drug administration. Data is presented as a % MPE. For oxaliplatin induced peripheral neuropathy, a series of injections of OXA (4 mg/kg, i.p.) on days 1-5 is used to induce peripheral neuropathy. After approximately 14 days from the initiation of PAC injections, animals are re-assessed for mechanical sensitivity. […] On test day animals are dosed with compounds subcutaneously and tested for mechanical response by the frequency method 30 min after drug administration. Data is presented as a % MPE. One or more of the compounds show reversal of chemotherapeutic induced peripheral neuropathy.

The structures appear in SMILES notation.

Chain of human sphingosine-1-phosphate receptor 2 (S1P2) (O95136 whole entry): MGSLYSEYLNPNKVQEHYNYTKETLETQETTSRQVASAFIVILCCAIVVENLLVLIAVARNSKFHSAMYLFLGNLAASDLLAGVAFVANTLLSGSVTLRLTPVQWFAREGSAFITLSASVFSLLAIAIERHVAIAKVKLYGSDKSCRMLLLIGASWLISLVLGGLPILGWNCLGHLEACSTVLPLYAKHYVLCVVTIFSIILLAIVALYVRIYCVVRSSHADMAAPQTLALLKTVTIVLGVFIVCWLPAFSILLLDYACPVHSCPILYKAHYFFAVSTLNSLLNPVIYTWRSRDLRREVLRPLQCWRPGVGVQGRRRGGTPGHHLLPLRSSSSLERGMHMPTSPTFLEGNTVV
Chain of human sphingosine-1-phosphate receptor 3 (S1P3) (Q99500 whole entry): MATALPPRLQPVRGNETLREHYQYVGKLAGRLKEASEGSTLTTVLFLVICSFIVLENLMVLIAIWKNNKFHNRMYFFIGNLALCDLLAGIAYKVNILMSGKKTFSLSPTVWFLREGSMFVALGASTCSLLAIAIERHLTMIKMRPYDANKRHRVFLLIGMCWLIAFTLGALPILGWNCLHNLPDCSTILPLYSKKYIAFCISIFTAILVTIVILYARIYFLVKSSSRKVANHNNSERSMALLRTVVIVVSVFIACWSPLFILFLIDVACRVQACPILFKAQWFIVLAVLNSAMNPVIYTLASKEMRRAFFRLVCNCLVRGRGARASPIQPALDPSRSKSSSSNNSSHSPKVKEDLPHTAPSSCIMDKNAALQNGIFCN

Regarding `CCC1(CC)CC(=O)c2cc(-c3nc(-c4ccc5[nH]c(=O)oc5c4)no3)ccc2O1` [Compound 445, 6-(5-(2,2-diethyl-4-oxochroman-6-yl)-1,2,4-oxadiazol-3-yl)benzo[d]oxazol-2(3H)-one], the “hS1P1 cAMP pEC50” value in experiment [1] is reported as greater than 6.5. The “hS1P1 B-arrestin2 pEC50” value in experiment [2] was greater than 5. Besides, in experiment [3], the “hS1P2 IP-one pEC50” value was greater than 5.0. In experiment [4], the “hS1P3 cAMP pEC50” value is recorded as less than 5.0.

As for `CC(C)Nc1ccc(-c2nc(-c3ccc4c(c3)NC(=O)C4)no2)cc1C#N` [Compound 496, 2-(isopropylamino)-5-(3-(2-oxoindolin-6-yl)-1,2,4-oxadiazol-5-yl)benzonitrile], in experiment [1], the “hS1P1 cAMP pEC50” value was greater than 6.5. Also, the “hS1P1 B-arrestin2 pEC50” value in experiment [2] is greater than 5. For the same molecule, the “hS1P2 IP-one pEC50” value in experiment [3] was less than 5.0. The “hS1P3 cAMP pEC50” value in experiment [4] is less than 5.0.

For the molecule `CC(C)Nc1ccc(-c2nc(-c3ccc4oc(=O)[nH]c4c3)no2)cc1C#N` [Compound 422, 2-(isopropylamino)-5-(3-(2-oxo-2,3-dihydrobenzo[d]oxazol-5-yl)-1,2,4-oxadiazol-5-yl)benzonitrile], the “hS1P1 cAMP pEC50” value in experiment [1] was greater than 6.5. The “hS1P1 B-arrestin2 pEC50” value in experiment [2] is reported as greater than 5. The “hS1P2 IP-one pEC50” value in experiment [3] is listed as greater than 5.0. For the same molecule, in experiment [4], the “hS1P3 cAMP pEC50” value is given as greater than 5.0.

Take `CCC1(CC)CC(=O)c2cc(-c3nc(-c4ccc(S(N)(=O)=O)cc4)no3)ccc2O1` [Compound 106, 4-(5-(2,2-diethyl-4-oxochroman-6-yl)-1,2,4-oxadiazol-3-yl)benzenesulfonamide]: in experiment [1], the Emax is greater than 75% and the “hS1P1 cAMP pEC50” value was greater than 6.5. In experiment [2], the Emax is greater than 75% and the “hS1P1 B-arrestin2 pEC50” value is reported as greater than 5. Further, in experiment [5] (sc, 0.5 h, 1 mg/kg s.c., tested 30 min after dosing, read-out: Screen @ 1 mg/kg sc (% MPE)), the inhibition in vivo at 1 mg/kg was less than 50%.

Turning to `N#Cc1cc(-c2nc(-c3ccc4c(c3)NC(=O)CC4)no2)ccc1NCC1CC1` [Compound 471, 2-((cyclopropylmethyl)amino)-5-(3-(2-oxo-1,2,3,4-tetrahydroquinolin-7-yl)-1,2,4-oxadiazol-5-yl)benzonitrile], in experiment [1], the “hS1P1 cAMP pEC50” value is recorded as greater than 6.5. In experiment [2], the “hS1P1 B-arrestin2 pEC50” value is on record as greater than 5. The inhibition in vivo at 3 mg/kg in experiment [5] was less than 50%.

For the molecule `N#Cc1cc(-c2nnc(-c3ccc4[nH]cnc4c3)o2)ccc1NC1CC1` [Compound 598, 5-[5-(1H-1,3-benzodiazol-5-yl)-1,3,4-oxadiazol-2-yl]-2-(cyclopropylamino) benzonitrile], in experiment [1], the Emax was greater than 75% and the “hS1P1 cAMP pEC50” value was greater than 6.5. For the same molecule, in experiment [2], the Emax was greater than 75% and the “hS1P1 B-arrestin2 pEC50” value is given as greater than 5. The inhibition in vivo at 3 mg/kg in experiment [5] was less than 50%.

For `N#Cc1cc(-c2nnc(-c3ccc4[nH]cnc4c3)o2)ccc1NCCF` [Compound 358, 5-[5-(1H-1,3-benzodiazol-5-yl)-1,3,4-oxadiazol-2-yl]-2-[(2-fluoroethyl)amino]benzonitrile], in experiment [1], the Emax is greater than 75% and the “hS1P1 cAMP pEC50” value is reported as greater than 6.5. For the same molecule, in experiment [2], the Emax was greater than 75% and the “hS1P1 B-arrestin2 pEC50” value is greater than 5. The inhibition in vivo at 3 mg/kg in experiment [5] was greater than 50%.

Consider `Cn1cnc2ccc(-c3nnc(-c4ccc(NCC(F)F)c(C#N)c4)o3)cc21` [Compound 580, 2-[(2,2-difluoroethyl)amino]-5-[5-(1-methyl-1H-1,3-benzodiazol-6-yl)-1,3,4-oxadiazol-2-yl]benzonitrile], for which the “hS1P1 cAMP pEC50” value in experiment [1] was greater than 6.5. Besides, the “hS1P1 B-arrestin2 pEC50” value in experiment [2] is recorded as greater than 5. Further, in experiment [5], the inhibition in vivo at 3 mg/kg is greater than 50%.

Turning to `CC(C)Nc1ccc(-c2nc(-c3ccc4c(c3)C(=O)NCC4)no2)cc1C#N` [Compound 514, 2-(isopropylamino)-5-(3-(1-oxo-1,2,3,4-tetrahydroisoquinolin-7-yl)-1,2,4-oxadiazol-5-yl)benzonitrile], the “hS1P1 cAMP pEC50” value in experiment [1] is given as greater than 6.5. In experiment [2], the “hS1P1 B-arrestin2 pEC50” value is recorded as greater than 5. For the same molecule, in experiment [5], the inhibition in vivo at 3 mg/kg is greater than 50%.

Turning to `CCC1(CC)CC(=O)c2cc(-c3nc(-c4cncc(N)c4)no3)ccc2O1` [Compound 502, 6-(3-(5-aminopyridin-3-yl)-1,2,4-oxadiazol-5-yl)-2,2-diethylchroman-4-one], in experiment [1], the “hS1P1 cAMP pEC50” value was greater than 6.5. Also, the “hS1P1 B-arrestin2 pEC50” value in experiment [2] is listed as greater than 5. Further, the inhibition in vivo at 3 mg/kg in experiment [5] is greater than 50%.

Regarding `CC(C)n1nnc2cc(-c3noc(-c4cccc5c4CCC5=O)n3)ccc21` [Compound 608, 4-{3-[1-(propan-2-yl)-1H-1,2,3-benzotriazol-5-yl]-1,2,4-oxadiazol-5-yl}-2,3-dihydro-1H-inden-1-one], the “hS1P1 cAMP pEC50” value in experiment [1] is on record as greater than 6.5. Moreover, in experiment [2], the “hS1P1 B-arrestin2 pEC50” value is reported as greater than 5. The inhibition in vivo at 3 mg/kg in experiment [5] was less than 50%.

Consider `N#Cc1cc(-c2nnc(-c3ccc4[nH]ncc4c3)o2)ccc1NCC(F)F` [Compound 354, 2-[(2,2-difluoroethyl)amino]-5-[5-(1H-indazol-5-yl)-1,3,4-oxadiazol-2-yl]benzonitrile], for which, in experiment [1], the Emax was greater than 75% and the “hS1P1 cAMP pEC50” value is greater than 6.5. Moreover, in experiment [2], the Emax is greater than 75% and the “hS1P1 B-arrestin2 pEC50” value is recorded as greater than 5. Further, the inhibition in vivo at 3 mg/kg in experiment [5] is greater than 50%.

Turning to `CCC1(CC)CC(=O)c2cc(-c3nc(-c4ccc5c(c4)CCC(=O)N5)no3)ccc2O1` [Compound 415, 6-(5-(2,2-diethyl-4-oxochroman-6-yl)-1,2,4-oxadiazol-3-yl)-3,4-dihydroquinolin-2(1H)-one], the “hS1P1 cAMP pEC50” value in experiment [1] is listed as greater than 6.5. Further, the “hS1P1 B-arrestin2 pEC50” value in experiment [2] is given as less than 5. Moreover, the inhibition in vivo at 3 mg/kg in experiment [5] was less than 50%.

In the case of `COc1ncccc1-c1nc(-c2ccc3c(c2)nnn3C(C)C)no1` [Compound 607, 3-(1-isopropyl-1H-benzo[d][1,2,3]triazol-5-yl)-5-(2-methoxypyridin-3-yl)-1,2,4-oxadiazole], in experiment [1], the Emax is greater than 75% and the “hS1P1 cAMP pEC50” value was greater than 6.5. For the same molecule, in experiment [2], the Emax was greater than 75% and the “hS1P1 B-arrestin2 pEC50” value was greater than 5. In addition, the inhibition in vivo at 3 mg/kg in experiment [5] is greater than 50%.
